Measurements: US20040127446A1 (priority 1992, published 2004)
[invAb] = 3' inverted deoxyabasic cap; [amino-N] = 2'-deoxy-2'-amino nucleotide (N: the base); [I] = hypoxanthine (inosine); m = 2'-O-methyl; r = 2'-OH (RNA)

Each substance was assayed on plus strand HCV RNA. Conditions: plus strand (+) HCV site, 50 mM Tris-Cl, pH 8.0, 40 mM Mg2+ at 37°, trace substrate, enzymatic nucleic acid concentration of 500 nM or greater.
Type: biochemical, Hepatitis C virus

Row | Substance | % Substrate Cleaved in 3 hours
1 | 22749 (GGAAAAGGCCGAAAGGCGAGUGAGGUCUAACAGGA; 2'-O-methyl at 1, 2, 3, 4, 5, 6, 7, 8, 9, 10, 11, 12, 13, 14, 15, 16, [amino-N] at 17, 27, [invAb] at 3' end, other sugars and backbone not given here) [compound 22749] | 90.80%
2 | 22778 (UGAUGGACUGAUGAGGCCGUUAGGCCGAANCUGUGA; ribozyme; 2'-O-methyl at 1, 2, 3, 4, 5, 6, 7, 15, 16, 17, 18, 19, 20, 21, 22, 23, 24, 25, 26, 31, 32, 33, 34, 35, 36, [I] at 30, [invAb] at 3' end, other sugars and backbone not given here) [compound 22778] | 83.77%
3 | 22943 (GCUGAGACUGAUGAGGCCGUUAGGCCGAAACGAGGA; 2'-O-methyl at 1, 2, 3, 4, 5, 6, 7, 15, 16, 17, 18, 19, 20, 21, 22, 23, 24, 25, 26, 31, 32, 33, 34, 35, 36, [invAb] at 3' end, other sugars and backbone not given here) [compound 22943] | 89.67%
4 | 22975 (UGGUGUAGGCTAGCTACAACGAGCGUUGAN; 3' inverted abasic cap (B); Description of Artificial Sequence: Nucleic Acid; misc_feature (30)..(30): n stands for inverted deoxyabasic derivative; misc_feature (1)..(7): 2'-O-Methyl; misc_feature (23)..(29): 2'-O-Methyl) [compound 22975] | 75.77%
5 | 22722 (ACCACCUUGAUGGCAUGCACUAUGCGCGACUCCAC; sugars from the 5' end mmmmmmmmrrrmmmmmrmmmmmmmmmrmmmmmmmm, [invAb] at 3' end, backbone not given here) [compound 22722] | 75.84%
6 | 22777 (CGAGGAACUGAUGAGGCCGUUAGGCCGAANAGAGGA; ribozyme; 2'-O-methyl at 1, 2, 3, 4, 5, 6, 7, 15, 16, 17, 18, 19, 20, 21, 22, 23, 24, 25, 26, 31, 32, 33, 34, 35, 36, [I] at 30, [invAb] at 3' end, other sugars and backbone not given here) [compound 22777] | 90.12%
7 | 22776 (GGUGAACCUGAUGAGGCCGUUAGGCCGAANCUGAGA; ribozyme; 2'-O-methyl at 1, 2, 3, 4, 5, 6, 7, 15, 16, 17, 18, 19, 20, 21, 22, 23, 24, 25, 26, 31, 32, 33, 34, 35, 36, [I] at 30, [invAb] at 3' end, other sugars and backbone not given here) [compound 22776] | 84.55%
8 | 22719 (UGGAAGAUGAUGGCAUGCACUAUGCGCGACUGAGA; sugars from the 5' end mmmmmmmmrrrmmmmmrmmmmmmmmmrmmmmmmmm, [invAb] at 3' end, backbone not given here) [compound 22719] | 69.88%
9 | 22721 (UCUAAGGUGAUGGCAUGCACUAUGCGCGACACGGU; sugars from the 5' end mmmmmmmmrrrmmmmmrmmmmmmmmmrmmmmmmmm, [invAb] at 3' end, backbone not given here) [compound 22721] | 47.37%
10 | 22751 (GAGUUGAGCCGAAAGGCGAGUGAGGUCUUGGAGUG; 2'-O-methyl at 1, 2, 3, 4, 5, 6, 7, 8, 9, 10, 11, 12, 13, 14, 15, 16, [amino-N] at 17, 27, [invAb] at 3' end, other sugars and backbone not given here) [compound 22751] | 14.85%
11 | 22779 (UGAGGAACUGAUGAGGCCGUUAGGCCGAANGUGGAG; ribozyme; 2'-O-methyl at 1, 2, 3, 4, 5, 6, 7, 15, 16, 17, 18, 19, 20, 21, 22, 23, 24, 25, 26, 31, 32, 33, 34, 35, 36, [I] at 30, [invAb] at 3' end, other sugars and backbone not given here) [compound 22779] | 82.22%
12 | 22971 (AGGAAGAGGCTAGCTACAACGAAGAGAAAN; 3' inverted abasic cap (B); misc_feature (30)..(30): n stands for inverted deoxyabasic derivative; misc_feature (1)..(7): 2'-O-Methyl; misc_feature (23)..(29): 2'-O-Methyl) [compound 22971] | 92.11%
13 | 22945 (GGAAGGACUGAUGAGGCCGUUAGGCCGAAAGGAUGC; 2'-O-methyl at 1, 2, 3, 4, 5, 6, 7, 15, 16, 17, 18, 19, 20, 21, 22, 23, 24, 25, 26, 31, 32, 33, 34, 35, 36, [invAb] at 3' end, other sugars and backbone not given here) [compound 22945] | 82.54%
14 | 22972 (UGAGAGAGGCTAGCTACAACGAGAGGAAGN; 3' inverted abasic cap (B); Description of Artificial Sequence: Nucleic Acid; misc_feature (30)..(30): "n" is an inverted deoxyabasic moiety; misc_feature (1)..(7): 2'-O-Methyl; misc_feature (23)..(29): 2'-O-Methyl) [compound 22972] | 86.38%
15 | 22947 (GGAGUGACUGAUGAGGCCGUUAGGCCGAAAAUGCGC; 2'-O-methyl at 1, 2, 3, 4, 5, 6, 7, 15, 16, 17, 18, 19, 20, 21, 22, 23, 24, 25, 26, 31, 32, 33, 34, 35, 36, [invAb] at 3' end, other sugars and backbone not given here) [compound 22947] | 81.88%
16 | 22973 (AGGUGAAGGCTAGCTACAACGAAGCUGAGN; 3' inverted abasic cap (B); Description of Artificial Sequence: Nucleic Acid; misc_feature (30)..(30): n stands for inverted deoxyabasic derivative; misc_feature (1)..(7): 2'-O-Methyl; misc_feature (23)..(29): 2'-O-Methyl) [compound 22973] | 83.15%
17 | 22974 (CUGGUGAGGCTAGCTACAACGAGGAGGCUN; 3' inverted abasic cap (B); misc_feature (30)..(30): n stands for inverted deoxyabasic derivative; misc_feature (1)..(7): 2'-O-Methyl; misc_feature (23)..(29): 2'-O-Methyl) [compound 22974] | 57.82%
18 | 22946 (CUCCACGCUGAUGAGGCCGUUAGGCCGAAACUCCUC; 2'-O-methyl at 1, 2, 3, 4, 5, 6, 7, 15, 16, 17, 18, 19, 20, 21, 22, 23, 24, 25, 26, 31, 32, 33, 34, 35, 36, [invAb] at 3' end, other sugars and backbone not given here) [compound 22946] | 78.06%
19 | 22750 (AGAAGAAGCCGAAAGGCGAGUGAGGUCUACGAGGAN; 2'-O-methyl, 2'-amino and inverted abasic, amino positions listed inconsistently, further chemistry not given here) [compound 22750] | 80.64%
